The nature of the data set: Catalepsy test (rat on a vertical wire mesh, s.c.). Particulars: Cataleptic Activity, maximum within the first 6 hours. The method, then:
Test compound is given s.c. in different doses. The rat (170-240 g) is placed on a vertical wire mesh (mesh-diameter 12 mm). The rat is considered cataleptic if it remains immobile for more than 15 sec. The maximum number of rats showing catalepsy within the first 6 hours is recorded for each dose group. The results are recorded in fractions and an ED50 value is calculated by means of log-probit analysis.
For “5-Chloro-1-(4-fluorophenyl)-3-[1-[2-(2-imidazolidinon-1-yl)ethyl]-1,2,3,6-tetrahydropyridin-4-yl]-5-trifluoromethyl-1H-indole [Comp. B]”, the “ED50(s.c.)” value worked out at 2.2 µmol/kg.
Take “5-Chloro-1-(4-fluorophenyl)-3-[4-[2-(2-imidazolidinon-1-yl)ethyl]-12,3,6-tetrahydropyridin-4-yl]-5-trifluoromethyl-1H-indole [Comp. C]”: the “ED50(s.c.)” value came out at 4.5 µmol/kg.
In the case of `O=C1NCCN1CCN1CC=C(c2cn(-c3ccc(F)cc3)c3ccc(C(F)(F)F)cc23)CC1` [Comp. A, 1-(4-Fluorophenyl)-3-[1-[2-(2-imidazolidinon-1-yl)ethyl]-1,2,3,6-tetrahydropyridin-4-yl]-5-trifluoromethyl-1H-indole] it was 0.49 µmol/kg; in that of `CN1CCN(CCN2CCC(c3cn(-c4ccc(F)cc4)c4ccc(Cl)cc34)CC2)C1=O.O=C(O)/C=C/C(=O)O` [Comp. No 3, 5-chloro-1-(4-fluorophenyl)-3-[1-[2-(3-methyl-2-imidazolidinon-1-yl)ethyl]4-piperidyl]-1H-indole, fumarate], 31 µmol/kg; in that of `O=C(O)/C=C/C(=O)O.O=C1CCCN1CCN1CCC(c2cn(-c3ccc(F)cc3)c3ccc(Cl)cc23)CC1` [Comp. No 4, 5-chloro-1-(4-fluorophenyl)-3-[1-[2-(2-pyrrolidinon-1-yl)ethyl]-4-piperidyl]-1H-indole, fumarate], 23 µmol/kg.
